Consider one molecule from patent publication US6346529B1, “Antiviral therapy using thiazine dyes” (Oklahoma Medical Research Foundation, priority 1988, dated 2002).

Common to all, as to type: cell-based
Assay [1] concerns HIV-1 (strain LAV-1). The assay is described as follows: Inhibition of HIV-1 replication in human PBMC (supernatant RT activity). The conditions noted are these: Human immunodeficiency virus 1, PBMC; light/dark not stated; read-out: Antiviral Effect: EC50 HIV-1. On the procedure:
Cells: Human peripheral blood mononuclear cells (PBMC) from healthy HIV-1 seronegative and hepatitis B virus seronegative donors were isolated by Ficoll-Hypaque discontinuous gradient centrifugation at 1,000×g for 30 minutes, washed twice in phosphate-buffered saline (pH 7.2; PBS), and pelleted at 300×g for 10 minutes. Before infection, the cells were stimulated by phytohemagglutinin (PHA) at a concentration of 16.7 μg/ml, and 4 mM sodium bicarbonate buffer.
Retrovirus: HIV-1 (strain LAV-1) was obtained from Dr. P. Feorino (Centers for Disease Control, Atlanta, Ga.). The virus was propagated in human PBMC using RPMI 1640 medium, as described previously by McDougal, et al., (“Immunoassay for the detection and quantitation of infectious human retrovirus, lymphadenopathy-associated virus (LAV),” J. Immun. Meth. 76, 171-183, 1985) without PBA or fungizone and supplemented with 7% (v/v) interleukin-2 (Advanced Biotechnologies, Silver Spring, Md.), 7 μg/ml DEAE-dextran (Pharmacia, Uppsala, Sweden), and 370 U/ml anti-human leukocyte (alpha) interferon (ICN, Lisle, Ill.). Virus obtained from cell-free culture supernatant was titrated and stored in aliquots at −70° C. until use.
Inhibition of Virus Replication in Human PBMC: Uninfected PHA-stimulated human PBMC were uniformly distributed among 25 cm^2 flasks to give a 5 ml suspension containing about 2×10^6 cells/ml. Suitable dilutions of virus were added to infect the cultures. The mean reverse transcriptase (RT) activity of the inocula was 50,000 dpm/ml corresponding to about 100 TCID50, as determined by Groopman, et al., (1987), “Characterization of Serum Neutralization Response to the Human Immunodeficiency Virus (HIV),” AIDS Res. Human Retro. 3, 71-85. The drugs, at twice their final concentrations in 5 ml of RPMI 1640 medium (supplemented as described above), were added to the cultures. Uninfected and untreated PBMC at equivalent cell densities were grown in parallel as controls. The cultures were maintained in a humidified 5% CO2-95% air incubator at 37° C. for six days after infection at which point all cultures were sampled for supernatant RT activity.
RT Activity Assay: A […] aliquot of supernatant from each culture was clarified of cells at 300×g for 10 minutes. […]
The RT assay was performed in 96-well microtiter plates, as described by Spira, et al. (1987), “Micromethod for Assaying the Reverse Transcriptase of LAV-HTLV-III/Lymphadenopathy-Associated Virus,” J. Clin. Microbiol. […] Four ml of scintillation fluid (Econofluor, NEN Research Products, Boston, Mass.) were added and the amount of radioactivity in each sample was determined using a Packard Tri-Carb liquid scintillation analyzer (model 2,000CA). […]

In assay [2] the test system is HSV-1 (F strain). The assay is described as follows: HSV plaque reduction assay in Vero cells, HSV-1. The conditions noted are these: Human alphaherpesvirus 1, Vero, light/dark not stated; read-out: Antiviral Effect: EC50 HSV-1. As to the method:
(§1) HSV Preparation: Confluent HEp-2 cells, in a roller bottle (Falcon, 850 cm^2), were infected at an input multiplicity of 0.01 PFU per cell (to minimize production of defective viruses). During the two-hour absorption period, the cells were exposed to the virus inoculum diluted in absorption buffer (10 ml PBS containing 1% newborn calf serum and 0.1% glucose). The virus inoculum was then removed and replaced with Hanks' Minimum Essential Medium (MEM) containing 2% inactivated newborn calf serum, penicillin (100 U/ml) and streptomycin (100 μg/ml) (P and S), sodium bicarbonate (2 g/L) and HEPES (25 mM) (maintenance medium). The infected cells were incubated at 37° C. for 3 to 4 days, until the cells could be easily shaken from the plastic surface of the culture bottles. The cells were then collected by centrifugation, suspended in a small volume of spent culture fluid (5 ml per 2×10^8 cells) and sonicated 3 times for one min on ice. The disrupted cells were centrifuged (2,000 g for 15 min at 4° C. and the supernatant was diluted with an equal volume of sterile skimmed milk (as stabilizer) and aliquots were frozen at −70° C.
(§2) HSV Plaque Reduction Assay: Near confluent Vero (African Green Monkey) cells in 6-well plates were infected with 100 μl virus diluted in absorption buffer to give 100-200 plaques per well. The plates were then incubated at 37° C. for 1 hour with intermittent rocking every 15 minutes. The inoculum was aspirated and the compounds at different concentrations (dissolved in maintenance medium) were added to replicate wells. For these assays, 0.1% pooled human gamma globulin was included in the media. The plates were placed in 5% CO2-95% air incubator and the plaques were allowed to develop for 48 h prior to fixation (buffered 10% Formalin acetate), staining (0.5% crystal violet in 20% EtOH/H2O) and enumeration. The degree of inhibition (percent plaques of control) was calculated by counting the mean plaque counts for the different drug dilutions. […] For routine antiviral drug screening, we used the F strain of HSV-1 and the G strain of HSV-2 (Ejercito, et al., “Characterization of Herpes Simplex virus Strains Differing in Their Effect on Social Behavior of Infected Cells,” J. Gen. Virol. 2, 357-364 (1968)). […] Acyclovir (ACV) was used as a positive control for the studies on HSV.
(§3) Median-Effect Method: EC50 and IC50 values were obtained by analysis of the data using the median-effect equation (Chou, T., et al., “Quantitative Analysis of Dose-Effect Relationships: The Combined Effects of Multiple Drugs or Enzyme Inhibitors,” Adv. Enz. Regul. 22, 27-55 (1984).

The test system of assay [3] is HSV-2 (G strain). The experiment in a line: HSV plaque reduction assay in Vero cells, HSV-2. The conditions noted are these: Human alphaherpesvirus 2, Vero, light/dark not stated; read-out: Antiviral Effect: EC50 HSV-2. As to the method:
as §1, §2, §3

The subject of assay [4] is HIV (LAV-I). The assay is described as follows: HIV in human PBMC, P24 levels by EIA. On the procedure: While the previous example measured RT activity, the present example utilizes a direct quantitation of a viral protein (P24) as an indicator of antiviral effectiveness.
Peripheral blood mononuclear (PBM) cells were infected with HIV and treated with methylene blue as described above. The EC50 levels were calculated from enzyme immuno-assay (EIA) measurements of viral coat protein P24. The P24-specific EIA kit was purchased from Abbott Labs.

As to `Cc1cn([C@H]2C[C@H](N=[N+]=[N-])[C@@H](CO)O2)c(=O)[nH]c1=O` [AZT, 3′-azido-3′-deoxythymidine], the EC50 is 0.22 nM in assay [1]; above 100000 nM in assay [2]; above 100000 nM in assay [3]; 6.4 nM in assay [4] (Human immunodeficiency virus 1, PBMC, light/dark not stated, read-out: EC50 (P24)). Besides, the “ng P24/ml” value is 360.7 ng P24/ml in assay [4] (0.0001 μM), 266.2 ng P24/ml in assay [4] (0.001 μM), 36.1 ng P24/ml in assay [4] (0.01 μM) and 5.2 ng P24/ml in assay [4] (0.1 μM). Also, the inhibition at 0.0001 µM in assay [4] (Human immunodeficiency virus 1, PBMC, 0.0001 μM, read-out: % Inhibition (corrected)) is -0.5%. Also, the inhibition at 0.001 µM in assay [4] (Human immunodeficiency virus 1, PBMC, 0.001 μM, read-out: % Inhibition (corrected)) was 25.8%. In assay [4] (Human immunodeficiency virus 1, PBMC, 0.01 μM, read-out: % Inhibition (corrected)), the inhibition at 0.01 µM was 89.9%. In assay [4] (Human immunodeficiency virus 1, PBMC, 0.1 μM, read-out: % Inhibition (corrected)), the inhibition at 0.1 µM came to 98.5%.
